According to US12421243B2, “Pharmaceutically effective compounds inhibiting selectively the myosin 2 isoforms” (PRINTNET KERESKEDELMI ÉS SZOLGÁLTATÓ KFT., priority 2018, dated 2025):

Key:
[1] = target: recombinant Dictyostelium miozin (Dictyostelium) (Dictyostelium discoideum, UniProt P08799); test: actomyosin steady state ATPase measurement, Dictyostelium myosin; type: biochemical; conditions: for IC50: concentration required for semi-maximal inhibition of ATPase, read-out: IC50 (μM) Dicty; for % inhibition. complete Dicty: maximum value of inhibition of ATPase activity; for inhibition at 5 µM: read-out: % inhibition at 5 μM (or 10 μM if racemate) Dicty; for inhibition at 50 µM: read-out: % inhibition at 50 μM (or 100 μM if racemate) Dicty; for Inhibition (%) Dicty: maximum inhibition, compounds in IC50 range 1-11 μM
Description: (§1) […]; (ii) the concentration required for semi-maximal inhibition.

[2] = target: recombinant human non-muscle myosin 2 NM2C (Homo sapiens, UniProt Q7Z406); test: actomyosin steady state ATPase measurement, NM2C; type: biochemical; conditions: for IC50: concentration required for semi-maximal inhibition of ATPase; for % inhibition. complete NM2C: maximum value of inhibition of ATPase activity; for inhibition at 5 µM: read-out: % inhibition at 5 μM (or 10 μM if racemate) NM2C, 5 μM (10 μM if racemate); for inhibition at 5 µM / inhibition at 50 µM: ATPase activity; for inhibition at 50 µM: read-out: % inhibition at 50 μM (or 100 μM if racemate) NM2C, 50 μM (100 μM if racemate); for Inhibition (%) NM2C: maximum inhibition, compounds in IC50 range 1-5 μM
Sequence of recombinant human non-muscle myosin 2 NM2C (Q7Z406 whole entry): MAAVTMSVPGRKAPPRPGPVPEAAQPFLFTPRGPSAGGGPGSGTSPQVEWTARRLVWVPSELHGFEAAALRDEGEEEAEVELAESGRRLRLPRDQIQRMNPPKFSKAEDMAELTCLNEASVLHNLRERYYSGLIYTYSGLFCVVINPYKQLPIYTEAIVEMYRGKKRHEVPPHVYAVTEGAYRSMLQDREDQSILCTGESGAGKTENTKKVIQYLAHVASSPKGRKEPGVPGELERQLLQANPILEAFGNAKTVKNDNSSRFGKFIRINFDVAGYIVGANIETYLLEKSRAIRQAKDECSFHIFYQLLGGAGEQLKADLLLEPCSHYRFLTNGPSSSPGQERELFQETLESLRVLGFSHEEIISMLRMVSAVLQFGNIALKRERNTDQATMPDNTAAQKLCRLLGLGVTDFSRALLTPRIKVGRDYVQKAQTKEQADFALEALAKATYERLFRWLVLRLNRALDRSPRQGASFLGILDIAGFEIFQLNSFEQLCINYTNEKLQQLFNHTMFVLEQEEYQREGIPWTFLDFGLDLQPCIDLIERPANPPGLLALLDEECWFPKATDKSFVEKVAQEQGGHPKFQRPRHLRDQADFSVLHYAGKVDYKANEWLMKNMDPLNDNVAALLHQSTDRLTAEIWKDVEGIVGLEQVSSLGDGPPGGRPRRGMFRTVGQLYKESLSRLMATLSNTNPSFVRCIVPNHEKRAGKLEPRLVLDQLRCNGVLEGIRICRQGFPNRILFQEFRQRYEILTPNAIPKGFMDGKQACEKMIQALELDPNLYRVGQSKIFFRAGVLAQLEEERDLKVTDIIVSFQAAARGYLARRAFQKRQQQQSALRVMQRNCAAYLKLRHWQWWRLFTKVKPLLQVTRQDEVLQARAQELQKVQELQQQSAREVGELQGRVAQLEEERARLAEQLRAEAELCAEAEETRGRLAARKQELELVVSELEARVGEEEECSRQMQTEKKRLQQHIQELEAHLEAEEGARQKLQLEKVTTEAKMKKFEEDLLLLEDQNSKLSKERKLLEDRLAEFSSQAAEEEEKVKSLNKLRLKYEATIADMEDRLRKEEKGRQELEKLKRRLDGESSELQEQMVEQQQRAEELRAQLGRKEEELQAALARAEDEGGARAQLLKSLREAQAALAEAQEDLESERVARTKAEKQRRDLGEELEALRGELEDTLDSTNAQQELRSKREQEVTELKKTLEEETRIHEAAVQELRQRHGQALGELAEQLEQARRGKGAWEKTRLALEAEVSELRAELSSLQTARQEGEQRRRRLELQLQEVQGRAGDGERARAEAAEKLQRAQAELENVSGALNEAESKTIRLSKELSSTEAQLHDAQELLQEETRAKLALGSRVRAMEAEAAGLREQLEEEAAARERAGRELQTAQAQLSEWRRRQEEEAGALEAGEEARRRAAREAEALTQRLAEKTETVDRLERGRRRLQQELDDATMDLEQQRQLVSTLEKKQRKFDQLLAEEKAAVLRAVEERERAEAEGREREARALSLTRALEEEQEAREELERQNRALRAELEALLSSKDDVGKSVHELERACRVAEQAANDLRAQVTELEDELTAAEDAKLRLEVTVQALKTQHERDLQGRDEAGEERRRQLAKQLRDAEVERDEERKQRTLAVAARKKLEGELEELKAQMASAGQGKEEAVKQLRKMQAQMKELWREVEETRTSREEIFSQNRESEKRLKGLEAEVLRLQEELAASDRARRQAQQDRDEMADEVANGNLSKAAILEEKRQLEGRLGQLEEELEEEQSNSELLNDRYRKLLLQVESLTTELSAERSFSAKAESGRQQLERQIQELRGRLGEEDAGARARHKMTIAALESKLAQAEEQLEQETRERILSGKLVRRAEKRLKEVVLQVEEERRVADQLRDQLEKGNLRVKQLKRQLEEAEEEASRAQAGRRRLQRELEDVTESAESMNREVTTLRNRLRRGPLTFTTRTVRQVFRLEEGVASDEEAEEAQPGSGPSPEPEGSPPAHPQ
Description: as §1

[3] = target: T1, isolated porcine cardiac ventricular myocardium (cardiac) (Sus scrofa, UniProt P79293); test: actomyosin steady state ATPase measurement, cardiac myosin; type: biochemical; conditions: for IC50: concentration required for semi-maximal inhibition of ATPase; for % inhibition. complete cardiac: maximum value of inhibition of ATPase activity; for inhibition at 5 µM: read-out: % inhibition at 5 μM (or 10 μM if racemate) cardiac, 5 μM (10 μM if racemate); for inhibition at 5 µM / inhibition at 50 µM: ATPase activity; for inhibition at 50 µM: read-out: % inhibition at 50 μM (or 100 μM if racemate) cardiac, 50 μM (100 μM if racemate)
T1 construct: isolated porcine cardiac ventricular myocardium (cardiac); from tissue; host or cells: porcine cardiac ventricle
T1 sequence (P79293 whole entry): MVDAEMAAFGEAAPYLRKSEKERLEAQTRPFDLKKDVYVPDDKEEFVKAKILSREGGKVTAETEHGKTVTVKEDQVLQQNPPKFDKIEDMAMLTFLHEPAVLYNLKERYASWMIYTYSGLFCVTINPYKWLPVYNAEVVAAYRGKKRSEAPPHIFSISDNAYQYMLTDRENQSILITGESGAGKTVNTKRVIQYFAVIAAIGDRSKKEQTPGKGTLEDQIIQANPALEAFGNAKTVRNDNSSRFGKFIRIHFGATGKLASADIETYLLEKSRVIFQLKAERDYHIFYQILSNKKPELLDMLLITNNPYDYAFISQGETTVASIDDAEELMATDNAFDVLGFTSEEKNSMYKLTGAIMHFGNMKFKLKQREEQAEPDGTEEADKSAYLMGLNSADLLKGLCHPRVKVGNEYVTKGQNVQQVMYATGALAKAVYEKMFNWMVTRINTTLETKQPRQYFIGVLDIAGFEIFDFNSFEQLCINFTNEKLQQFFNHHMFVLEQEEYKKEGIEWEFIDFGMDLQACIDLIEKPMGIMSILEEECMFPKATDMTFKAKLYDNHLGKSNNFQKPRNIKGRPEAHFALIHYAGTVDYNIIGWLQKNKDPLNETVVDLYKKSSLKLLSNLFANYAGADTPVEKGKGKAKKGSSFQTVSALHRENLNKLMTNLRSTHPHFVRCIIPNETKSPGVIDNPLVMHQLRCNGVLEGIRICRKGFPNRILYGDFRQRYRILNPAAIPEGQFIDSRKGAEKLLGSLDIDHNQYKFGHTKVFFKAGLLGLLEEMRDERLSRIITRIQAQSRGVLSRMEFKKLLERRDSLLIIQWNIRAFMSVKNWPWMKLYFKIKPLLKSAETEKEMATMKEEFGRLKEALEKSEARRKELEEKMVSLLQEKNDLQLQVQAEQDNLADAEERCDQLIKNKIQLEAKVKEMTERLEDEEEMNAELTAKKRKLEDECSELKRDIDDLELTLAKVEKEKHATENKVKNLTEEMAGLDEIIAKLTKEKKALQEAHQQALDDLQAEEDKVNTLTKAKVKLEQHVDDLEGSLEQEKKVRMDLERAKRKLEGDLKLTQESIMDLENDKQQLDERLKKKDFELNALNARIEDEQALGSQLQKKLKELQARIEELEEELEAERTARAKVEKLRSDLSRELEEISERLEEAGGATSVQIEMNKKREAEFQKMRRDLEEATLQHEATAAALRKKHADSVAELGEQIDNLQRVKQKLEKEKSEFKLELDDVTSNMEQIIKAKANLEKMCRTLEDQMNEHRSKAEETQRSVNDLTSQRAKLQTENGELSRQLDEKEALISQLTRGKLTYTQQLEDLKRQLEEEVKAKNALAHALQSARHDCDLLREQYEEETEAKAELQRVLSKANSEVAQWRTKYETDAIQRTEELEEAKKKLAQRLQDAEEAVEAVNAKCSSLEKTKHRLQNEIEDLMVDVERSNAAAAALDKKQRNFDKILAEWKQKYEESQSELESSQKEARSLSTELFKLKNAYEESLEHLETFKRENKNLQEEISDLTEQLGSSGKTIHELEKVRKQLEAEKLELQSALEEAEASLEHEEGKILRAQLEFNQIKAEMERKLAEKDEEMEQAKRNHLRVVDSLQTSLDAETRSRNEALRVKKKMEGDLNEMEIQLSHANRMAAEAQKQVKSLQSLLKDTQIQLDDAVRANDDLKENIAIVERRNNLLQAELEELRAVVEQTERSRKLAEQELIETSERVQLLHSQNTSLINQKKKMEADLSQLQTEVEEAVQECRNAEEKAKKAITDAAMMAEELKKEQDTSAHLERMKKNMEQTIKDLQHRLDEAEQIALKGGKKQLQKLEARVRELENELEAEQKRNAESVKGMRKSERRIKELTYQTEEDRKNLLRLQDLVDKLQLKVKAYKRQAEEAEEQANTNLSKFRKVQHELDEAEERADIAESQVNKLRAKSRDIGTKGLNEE
Description: as §1

[4] = system: isolated rabbit skeletal muscle myosin (skeletal); test: actomyosin steady state ATPase measurement, skeletal muscle myosin; type: biochemical; conditions: for % inhibition at 5 μM (or 10 μM if racemate) Skeletal: 5 μM (10 μM if racemate); for % inhibition at 5 μM (or 10 μM if racemate) Skeletal / % inhibition at 50 μM (or 100 μM if racemate) Skeletal: ATPase activity; for % inhibition at 50 μM (or 100 μM if racemate) Skeletal: 50 μM (100 μM if racemate); for IC50: concentration required for semi-maximal inhibition of ATPase; for % inhibition. complete Skeletal: maximum value of inhibition of ATPase activity; for Inhibition (%) skeletal: maximum inhibition, compounds in IC50 range 1-2 μM
Description: as §1

[5] = target: isolated smooth muscle myosin (UniProt P10587); type: biochemical, chamois; conditions: concentration required for semi-maximal inhibition of ATPase
Description: (ii) the concentration required for semi-maximal inhibition.

[6] = target: isolated smooth muscle myosin (UniProt P10587); type: biochemical, chamois; conditions: for % inhibition at 5 μM (or 10 μM if racemate) Smooth: 5 μM (10 μM if racemate); for % inhibition at 5 μM (or 10 μM if racemate) Smooth / % inhibition at 50 μM (or 100 μM if racemate) Smooth: ATPase activity; for % inhibition at 50 μM (or 100 μM if racemate) Smooth: 50 μM (100 μM if racemate); for Inhibition (%) smooth: maximum inhibition, compounds in IC50 range 1-5 μM; for % inhibition. complete Smooth: maximum value of inhibition of ATPase activity

| Compound | IC50 [1] [µM] | % inhibition. complete Dicty [1] [%] | inhibition at 5 µM [1] [%] | inhibition at 50 µM [1] [%] | IC50 [2] [µM] | % inhibition. complete NM2C [2] [%] | inhibition at 5 µM [2] [%] | inhibition at 50 µM [2] [%] | IC50 [3] [µM] | % inhibition. complete cardiac [3] [%] | inhibition at 5 µM [3] [%] | inhibition at 50 µM [3] [%] | % inhibition at 5 μM (or 10 μM if racemate) Skeletal [4] [%] | % inhibition at 50 μM (or 100 μM if racemate) Skeletal [4] [%] | IC50 [4] [µM] | % inhibition. complete Skeletal [4] [%] | IC50 [5] [µM] | % inhibition at 5 μM (or 10 μM if racemate) Smooth [6] [%] | % inhibition at 50 μM (or 100 μM if racemate) Smooth [6] [%] | % inhibition. complete Smooth [6] [%] | also measured |
| --- | --- | --- | --- | --- | --- | --- | --- | --- | --- | --- | --- | --- | --- | --- | --- | --- | --- | --- | --- | --- | --- |
| Cc1cc2c(s1)N=C1N(c3cccs3)CCC1(O)C2=O (stereo not shown) [Compound 229, 9-Hydroxy-5-methyl-12-(thiophen-2-yl)-4-thia-2,12-diazatricyclo[7.3.0.0^3,7]dodeca-1,3(7),5-trien-8-one] | 1.4 | 97 | 74 | 95 | 1.1 | 100 | 78 | 98 | 1.4 | 93 | 54 | 87 | 87 | 96 | 0.61 | 97 | 3.4 | 54 | 87 | 93 | Inhibition (%) smooth [6]: 93% |
| Cc1cc2c(s1)N=C1N(c3ccc(CC#N)cc3)CCC1(O)C2=O (stereo not shown) [Compound 226, 2-(4-{9-Hydroxy-5-methyl-8-oxo-4-thia-2,12-diazatricyclo[7.3.0.0^3,7]dodeca-1,3(7),5-trien-12-yl}phenyl)acetonitrile] | 5.5 | 92 | 43 | 83 | 1.5 | 92 | 69 | 90 | 0.73 | 85 | 72 | 83 | 91 | 92 | 0.17 | 93 | 0.5 | 72 | 79 | 80 | Inhibition (%) Dicty [1]: 92% |
| COc1ccc(N2CCC3(O)C(=O)c4cc(C)sc4N=C23)cn1 (stereo not shown) [Compound 230, 9-Hydroxy-12-(6-methoxypyridin-3-yl)-5-methyl-4-thia-2,12-diazatricyclo[7.3.0.0^3,7]dodeca-1,3(7),5-trien-8-one] | 8.1 | 100 | 36 | 90 | 2.3 | 93 | 61 | 89 | 1.9 | 96 | 68 | 93 | 85 | 92 | 0.43 | 93 | 3.6 | 56 | 96 | 100 | Inhibition (%) NM2C [2]: 93%; Inhibition (%) smooth [6]: 100% |
| O=C1c2ccsc2N=C2N(c3cccs3)CC[C@@]12O [Compound 218, (9S)-9-Hydroxy-12-(thiophen-2-yl)-4-thia-2,12-diazatricyclo[7.3.0.0^3,7]dodeca-1,3(7),5-trien-8-one] | 78 | 100 | 4 | 39 | 44 | 20 | 2 | 11 | 2.7 | 79 | 49 | 75 | 50 | 85 | 4.2 | 92 | 8.1 | 10 | 24 | 28 | – |
| COc1ccc(N2CC[C@@]3(O)C(=O)c4ccsc4N=C23)cn1 [Compound 219, (9S)-9-Hydroxy-12-(6-methoxypyridin-3-yl)-4-thia-2,12-diazatricyclo[7.3.0.0^3,7]dodeca-1,3(7),5-trien-8-one] | 43 | 100 | 6 | 56 | 8.1 | 21 | 8 | 18 | 4.1 | 84 | 44 | 78 | 69 | 91 | 1.8 | 94 | 6.9 | 15 | 32 | 36 | Inhibition (%) cardiac ([3]; maximum inhibition, compounds in IC50 range 3-6 μM): 84%; Inhibition (%) skeletal [4]: 94% |
| CC(=O)c1ccc(N2CCC3(O)C(=O)c4cc(C)sc4N=C23)cc1 (stereo not shown) [Compound 225, 12-(4-Acetylphenyl)-9-hydroxy-5-methyl-4-thia-2,12-diazatricyclo[7.3.0.0^3,7]dodeca-1,3(7),5-trien-8-one] | 4.1 | 100 | 64 | 97 | 2.8 | 78 | 47 | 74 | 2.4 | 100 | 68 | 96 | 93 | 95 | 0.17 | 96 | 2.2 | 68 | 96 | 100 | Inhibition (%) Dicty [1]: 100% |
| COc1ccc(N2CCC3(O)C(=O)c4cc(C)sc4N=C23)cc1 (stereo not shown) [Compound 222, 9-Hydroxy-12-(4-methoxyphenyl)-5-methyl-4-thia-2,12-diazatricyclo[7.3.0.0^3,7]dodeca-1,3(7),5-trien-8-one] | 4.7 | 100 | 49 | 99 | 0.76 | 91 | 77 | 89 | 0.52 | 93 | 82 | 92 | 92 | 95 | 0.11 | 95 | 0.86 | 83 | 97 | 98 | – |
| Cc1cc2c(s1)N=C1N(c3ccc(N)cc3)CCC1(O)C2=O (stereo not shown) [Compound 221, 12-(4-Aminophenyl)-9-hydroxy-5-methyl-4-thia-2,12-diazatricyclo[7.3.0.0^3,7]dodeca-1,3(7),5-trien-8-one] | 11.6 | 100 | 27 | 85 | 4.1 | 61 | 32 | 56 | 0.9 | 79 | 65 | 78 | 65 | 91 | 1.8 | 92 | 6 | 43 | 87 | 97 | Inhibition (%) NM2C [2]: 61%; Inhibition (%) skeletal [4]: 92% |
| O=C1c2ccsc2N=C2N(c3ccc(CO)cc3)CC[C@@]12O [Compound 216, (9S)-9-Hydroxy-12-[4-(hydroxymethyl)phenyl]-4-thia-2,12-diazatricyclo[7.3.0.0^3,7]dodeca-1,3(7),5-trien-8-one] | 13.3 | 74 | 20 | 58 | 23 | 75 | 13 | 51 | 2.4 | 89 | 58 | 85 | 74 | 95 | 1.6 | 98 | 8.3 | 17 | 39 | 46 | Inhibition (%) skeletal [4]: 98% |
